Among the test systems are T-47D breast; MDA-N; DLD-1 colon; DMS 114 small cell lung; LXFL 529 NSCLC; M19-MEL melanoma; KM20L2 colon; HOP-18 NSCLC.
Holding throughout (experiment): NCI tumour cell line growth inhibition, 48 h

The results in this text go back to PubChem BioAssay (NCI).

Values joined by “and” are separate entries in the source; they are usually repeats but may differ in a detail not shown here. Equal entries are not always repeated.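 A five-concentration, 48-hour dose response in 96-well plates underlies each endpoint, interpolated linearly between surrounding concentrations. GI50: concentration for 50% inhibition of growth. At the TGI there is no net growth.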

As to `Nc1nc(=O)n(C2CC(O)C(CO)O2)cc1F` (stereo not drawn), in the experiment on T-47D breast, the GI50 was greater than 100 µM and the TGI was greater than 100 µM.
`NC(N)=NN=c1c(=O)c2ccccc2c1=O`: in the experiment on T-47D breast, the GI50 is 23.5 µM and the TGI came to 50.4 µM.
With `O=C1/C(=C/c2cccnc2)SC(=S)N1Cc1ccco1`, the values for the TGI in the experiment with MDA-N and in the experiment with T-47D breast were 6.29 µM and 64.6 µM, respectively.
As for `Cc1ccc2nc(NC(=O)C(=O)C(C(=O)c3ccc4ccccc4c3)C3OC(=O)c4ccccc43)sc2c1` (stereo not drawn), the TGI in the experiment on DLD-1 colon turned out to be 32.7 µM; in the experiment on DMS 114 small cell lung, 29.3 µM; in the experiment with LXFL 529 NSCLC, 19.2 µM; in the experiment with M19-MEL melanoma it was 32.6 µM.
As for `O=S(=O)(C1=CC(S(=O)(=O)c2ccccc2)COC1)c1ccccc1` (stereo not drawn), the TGI in the experiment on DLD-1 colon, in the experiment on DMS 114 small cell lung, in the experiment with LXFL 529 NSCLC and in the experiment on M19-MEL melanoma was greater than 100 µM in each case.
For `COC(=O)c1cc(-c2ccc3ccccc3c2)[nH]c(=O)c1C#N`, the TGI with MDA-N and in the experiment on T-47D breast was greater than 100 µM throughout.
Regarding `c1ccc2c(c1)[nH]c1cnc3c4ncccc4[nH]c3c12`, the TGI in the experiment on DLD-1 colon, in the experiment on DMS 114 small cell lung, in the experiment with KM20L2 colon, in the experiment with LXFL 529 NSCLC and in the experiment with M19-MEL melanoma was greater than 100 µM in each case.
Take `Cc1ccc2c(c1)[n+](=O)c(C(=O)c1cccs1)c(C(F)(F)F)n2[O-]`: in the experiment with T-47D breast, the GI50 is 1.55 µM and 0.183 µM; the TGI is 9.38 µM and 7.9 µM.
Consider `C[C@@H](Nc1nc(N[C@H](C)C(F)(F)F)nc(-c2cccc(Cl)n2)n1)C(F)(F)F`, for which, in the experiment with T-47D breast, the GI50 is 41.8 µM and the TGI was greater than 100 µM.
`CC(C)N(C(=O)C12C3C4C1C1C2C3C41C(=O)C(C)(C)C)C(C)C` (stereo not drawn): the TGI with DLD-1 colon, in the experiment on DMS 114 small cell lung, with KM20L2 colon, with LXFL 529 NSCLC and with M19-MEL melanoma was greater than 100 µM throughout.
On to `CN1CCN(CCCOc2cccc3nc(Nc4cc(Cl)cc(Cl)c4)ccc23)CC1`, for which, in the experiment on T-47D breast, the GI50 is 1.79 µM and the TGI stood at 3.76 µM.
On to `Nc1n[n+]([O-])c2cc([N+](=O)[O-])ccc2[n+]1[O-]`, for which the TGI was determined as 4.93 µM in the experiment with MDA-N and 18.6 µM in the experiment on T-47D breast.
Regarding `CC[C@@]1(O)C(=O)OCc2c1cc1n(c2=O)Cc2cc3cc(Cl)ccc3nc2-1`, the GI50 is 0.108 µM and 0.346 µM in the experiment with DLD-1 colon; less than 0.001 µM in the experiment on DMS 114 small cell lung; 0.00997 µM and 0.0271 µM in the experiment with KM20L2 colon; 0.108 µM in the experiment with LXFL 529 NSCLC; 0.0167 µM and 0.0195 µM in the experiment on M19-MEL melanoma; 0.0286 µM with MDA-N. Moreover, the GI50 in the experiment on T-47D breast is 0.00335 µM. Moreover, the TGI was greater than 100 µM in the experiment with DLD-1 colon; 0.144 µM and 0.461 µM in the experiment on KM20L2 colon; 2.22 µM with LXFL 529 NSCLC; 0.224 µM and 0.19 µM with M19-MEL melanoma; 0.374 µM with MDA-N; 0.167 µM in the experiment on T-47D breast.
`O=C1C=CC2(CCCCCCC2=O)CC1` (stereo not drawn): the TGI in the experiment on DLD-1 colon, in the experiment on HOP-18 NSCLC, in the experiment on KM20L2 colon, in the experiment with LXFL 529 NSCLC and in the experiment on M19-MEL melanoma was greater than 100 µM in each case.
Regarding `Cc1noc2cccc(O)c12`, the TGI in the experiment with DLD-1 colon, with DMS 114 small cell lung, in the experiment on HOP-18 NSCLC, with KM20L2 colon, with LXFL 529 NSCLC and in the experiment on M19-MEL melanoma was greater than 100 µM each time.
On to `CCCCCC/C=C/C#CCCCCCCCC(=O)O`, for which the TGI in the experiment with MDA-N and with T-47D breast was greater than 100 µM each time.
Regarding `CC(=O)OC1C[C@H]2C(OC(=O)c3ccccc3)C3C4(OC(C)=O)COC4C[C@H](OC(C)=O)[C@@]3(C)C(OC(C)=O)[C@H](OC(C)=O)C(=C1C)C2(C)C` (stereo partly drawn), the TGI in the experiment on DLD-1 colon, with DMS 114 small cell lung, in the experiment on HOP-18 NSCLC, in the experiment on KM20L2 colon, with LXFL 529 NSCLC and in the experiment with M19-MEL melanoma was greater than 100 µM throughout.
For `CNC(=O)c1cc(Oc2ccc3nc(NC(=O)Nc4ccc(CN5CCOCC5)c(C(F)(F)F)c4)sc3c2)ccn1`, in the experiment with T-47D breast, the GI50 is 1.53 µM and the TGI was determined as 6.82 µM.
Regarding `CC(=O)N[C@H](C)[C@@H](O)[C@@H](C)[C@@H]1OC(=O)/C=C/C=C(C)\C=C\[C@]2(C)C[C@@H](NS(C)(=O)=O)C=C[C@@H]2/C=C(C)/C=C/[C@H]1C`, in the experiment on T-47D breast, the GI50 is 0.00343 µM and 0.00506 µM; the TGI is greater than 43.5 µM.
In the case of `O=C1Cc2c(-c3ccccc3)cc(-c3ccccc3)nc2-c2ccccc2N1`, the TGI in the experiment with T-47D breast is 38.4 µM.
Take `C[C@H]1CCC/C=C/C2CC(OC(=O)CN(C)C)CC2C(OC(=O)CN(C)C)/C=C/C(=O)O1` (stereo partly drawn): the GI50 in the experiment on DLD-1 colon is 0.443 µM; with DMS 114 small cell lung it was 0.479 µM; in the experiment with KM20L2 colon, 0.266 µM; with LXFL 529 NSCLC, 0.417 µM; in the experiment on M19-MEL melanoma, 0.0406 µM; in the experiment on MDA-N, 0.427 µM. For the same molecule, the TGI in the experiment with DLD-1 colon is greater than 37.1 µM; in the experiment on DMS 114 small cell lung, greater than 30.2 µM; in the experiment with KM20L2 colon, 0.979 µM; in the experiment on LXFL 529 NSCLC it was 8.4 µM; in the experiment on M19-MEL melanoma, 0.211 µM; with MDA-N, greater than 100 µM.
On to `CC1(C)OB(c2ccc(N(CCOS(C)(=O)=O)CCOS(C)(=O)=O)cc2)OC1(C)C`, for which, in the experiment on T-47D breast, the GI50 is 18.1 µM and the TGI is greater than 100 µM.
For `NC(CCSCC(F)(F)F)C(=O)O` (stereo not drawn), the TGI in the experiment with DLD-1 colon, in the experiment with DMS 114 small cell lung, in the experiment on HOP-18 NSCLC, in the experiment with KM20L2 colon, with LXFL 529 NSCLC and with M19-MEL melanoma was greater than 100 µM throughout.
For `Cc1cccc2c(C3=C(c4cn(C)c5ccccc45)C(=O)NC3=O)cn(C)c12`, in the experiment on T-47D breast, the GI50 was greater than 20 µM and the TGI is greater than 25 µM.
